Assay results: PubChem BioAssay AID248 (DTP/NCI, 2004)
Where “and” joins values, the source holds several entries; their conditions need not be identical. Equal entries are not always repeated. Toxic doses and inconclusive results are not listed. Rule as the data show it: active = T/C of 150% or more; inactive = T/C below 125%.

Tested on: L1210 leukemia ip in BDF1 mice, survival T/C
Experiment: NCI In Vivo Anticancer Drug Screen. Data for tumor model L1210 Leukemia (intraperitoneal) in B6D2F1 (BDF1) mice
Conditions: endpoint: mean survival time, higher = longer survival
In short: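 Transplantable tumor model; survival measured in treated vs vehicle control mice. Value = treated/control.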

[1] = dose: 100.0 mg/kg/injection, schedule: Q01DX001 (ip), vehicle: carboxymethylcellulose (CMC)
[2] = dose: 400.0 mg/kg/injection, schedule: Q01DX001 (ip), vehicle: carboxymethylcellulose (CMC)
[3] = dose: 100.0 mg/kg/injection, schedule: Q01DX009 (ip), vehicle: saline with Tween-80
[4] = dose: 200.0 mg/kg/injection, schedule: Q01DX009 (ip), vehicle: saline with Tween-80
[5] = dose: 400.0 mg/kg/injection, schedule: Q01DX009 (ip), vehicle: saline with Tween-80
[6] = dose: 100.0 mg/kg/injection, schedule: Q04DX003 (ip), vehicle: saline with Tween-80
[7] = dose: 100.0 mg/kg/injection, schedule: Q04DX003 (ip), vehicle: saline
[8] = dose: 200.0 mg/kg/injection, schedule: Q04DX003 (ip), vehicle: saline with Tween-80
[9] = dose: 400.0 mg/kg/injection, schedule: Q04DX003 (ip), vehicle: saline with Tween-80
[10] = dose: 100.0 mg/kg/injection, schedule: Q01DX001 (ip), vehicle: saline
[11] = dose: 200.0 mg/kg/injection, schedule: Q01DX001 (ip), vehicle: saline
[12] = dose: 400.0 mg/kg/injection, schedule: Q01DX001 (ip), vehicle: saline
[13] = dose: 100.0 mg/kg/injection, schedule: Q04DX002 (ip), vehicle: saline
[14] = dose: 200.0 mg/kg/injection, schedule: Q04DX002 (ip), vehicle: saline
[15] = dose: 400.0 mg/kg/injection, schedule: Q04DX002 (ip), vehicle: saline

Measured: T/C

O=c1[nH]c2ccccc2c2cc3ccccc3cc12
inactive: dose: 88.8 mg/kg/injection, schedule: Q01DX001 (ip), vehicle: carboxymethylcellulose (CMC) 93 % of control and 102 % of control | [1] 93 % of control | dose: 133.4 mg/kg/injection, schedule: Q01DX001 (ip), vehicle: carboxymethylcellulose (CMC) 95 % of control and 102 % of control | dose: 300.0 mg/kg/injection, schedule: Q01DX001 (ip), vehicle: carboxymethylcellulose (CMC) 100 % of control and 88 % of control | [2] 93 % of control

CSc1cc(C)c(O)c(CO)c1
inactive: dose: 100.0 mg/kg/injection, schedule: Q01DX009 (ip), vehicle: other 92 % of control | dose: 200.0 mg/kg/injection, schedule: Q01DX009 (ip), vehicle: other 97 % of control | dose: 400.0 mg/kg/injection, schedule: Q01DX009 (ip), vehicle: other 92 % of control

COc1cc(-c2ccc(N=Nc3nc4nc(N)nc(O)c4[nH]3)c(OC)c2)ccc1N=Nc1nc2nc(N)nc(O)c2[nH]1
inactive: dose: 100.0 mg/kg/injection, schedule: Q04DX003 (ip), vehicle: Klucel (hydroxypropylcellulose) (HPC) 97 % of control | dose: 200.0 mg/kg/injection, schedule: Q04DX003 (ip), vehicle: Klucel (hydroxypropylcellulose) (HPC) 100 % of control | dose: 400.0 mg/kg/injection, schedule: Q04DX003 (ip), vehicle: Klucel (hydroxypropylcellulose) (HPC) 97 % of control

COc1ccccc1OC(=O)Nc1ccccc1F
inactive: [3] 97 % of control | [4] 96 % of control | [5] 118 % of control

O=C(Cc1ccccc1)NC(CSSCC(NC(=O)Cc1ccccc1)C(=O)O)C(=O)O (stereo not drawn)
inactive: dose: 88.0 mg/kg/injection, schedule: Q01DX009 (ip), vehicle: Klucel (hydroxypropylcellulose) (HPC) 93 % of control | dose: 100.0 mg/kg/injection, schedule: Q01DX009 (ip), vehicle: saline 100 % of control | [6] 95 % of control | [7] 105 % of control and 97 % of control | dose: 132.0 mg/kg/injection, schedule: Q01DX009 (ip), vehicle: Klucel (hydroxypropylcellulose) (HPC) 90 % of control | dose: 200.0 mg/kg/injection, schedule: Q01DX009 (ip), vehicle: Klucel (hydroxypropylcellulose) (HPC) 100 % of control | [8] 98 % of control | dose: 200.0 mg/kg/injection, schedule: Q04DX003 (ip), vehicle: saline 107 % of control and 100 % of control | dose: 400.0 mg/kg/injection, schedule: Q01DX009 (ip), vehicle: saline 103 % of control | [9] 98 % of control | dose: 400.0 mg/kg/injection, schedule: Q04DX003 (ip), vehicle: saline 96 % of control and 100 % of control

CS(=O)CC(N)C(=O)O (stereo not drawn)
inactive: [10] 97 % of control | [11] 102 % of control | [12] 103 % of control

CCCCCCOC(=O)Nc1ccc(S(=O)(=O)N(CCC)CCC)cc1
inactive: [10] 97 % of control | [11] 95 % of control | [12] 97 % of control

CN1C(=O)C2CCCN2C(=O)C1(C)O (stereo not drawn)
inactive: [13] 90 % of control | [14] 97 % of control | [15] 97 % of control

C=CCc1cn(C2OC(COC(=O)c3ccccc3)C(OC(=O)c3ccccc3)C2OC(=O)c2ccccc2)c(=S)[nH]c1=O (stereo not drawn)
inactive: dose: 100.0 mg/kg/injection, schedule: Q01DX005 (ip), vehicle: saline 95 % of control | dose: 200.0 mg/kg/injection, schedule: Q01DX005 (ip), vehicle: saline 98 % of control

CCN(CC)CCOc1ccc(/C=C2\CCc3ccccc3C2=O)cc1
inactive: dose: 25.0 mg/kg/injection, schedule: Q01DX007 (ip), vehicle: saline 104 % of control | dose: 50.0 mg/kg/injection, schedule: Q01DX007 (ip), vehicle: saline 102 % of control | dose: 50.0 mg/kg/injection, schedule: Q04DX003 (ip), vehicle: saline 95 % of control | dose: 100.0 mg/kg/injection, schedule: Q01DX007 (ip), vehicle: saline 96 % of control | [7] 95 % of control

CC(=O)NC1CCCC(C)C1 (stereo not drawn)
inactive: [3] 101 % of control | [4] 106 % of control

O=C(Cc1ccccc1)Nc1cc(C(F)(F)F)ccc1Cl
inactive: [13] 100 % of control | [14] 93 % of control | [15] 100 % of control

N#Cc1nnn(-c2ccccc2)n1
inactive: dose: 25.0 mg/kg/injection, schedule: Q01DX009 (ip), vehicle: acetone 101 % of control | dose: 50.0 mg/kg/injection, schedule: Q01DX009 (ip), vehicle: acetone 111 % of control | dose: 50.0 mg/kg/injection, schedule: Q04DX003 (ip), vehicle: acetone 93 % of control | dose: 100.0 mg/kg/injection, schedule: Q01DX001 (ip), vehicle: acetone 99 % of control | dose: 100.0 mg/kg/injection, schedule: Q04DX003 (ip), vehicle: acetone 88 % of control | dose: 200.0 mg/kg/injection, schedule: Q01DX001 (ip), vehicle: acetone 99 % of control

N=c1ccn(CC(O)COc2ccccc2)cc1 (stereo not drawn)
inactive: [10] 102 % of control

CCCCCCCCCCSCCSCCCCCCCCCC
inactive: [1] 95 % of control | [6] 96 % of control | dose: 200.0 mg/kg/injection, schedule: Q01DX001 (ip), vehicle: carboxymethylcellulose (CMC) 101 % of control | [8] 93 % of control | [2] 95 % of control | [9] 89 % of control

OC1CC=CC=CC1
inactive: dose: 75.0 mg/kg/injection, schedule: Q01DX001 (ip), vehicle: saline 94 % of control | dose: 150.0 mg/kg/injection, schedule: Q01DX001 (ip), vehicle: saline 97 % of control

CCOc1ccc(NC(=O)Nc2ccccc2)cc1
inactive: [3] 94 % of control | [6] 96 % of control | [4] 93 % of control | [8] 94 % of control | [5] 93 % of control | [9] 94 % of control

[CH3][Sn]([Br])([Br])[CH2]CCCBr
inactive: dose: 1.56 mg/kg/injection, schedule: Q01DX009 (ip), vehicle: saline 103 % of control | dose: 3.12 mg/kg/injection, schedule: Q01DX009 (ip), vehicle: saline 112 % of control | dose: 6.25 mg/kg/injection, schedule: Q01DX009 (ip), vehicle: saline 100 % of control

O=C(Nc1ccccc1)OCCCC1CCCC1
inactive: dose: 100.0 mg/kg/injection, schedule: Q01DX009 (sc), vehicle: olive oil, sesame oil, peanut oil 108 % of control | dose: 200.0 mg/kg/injection, schedule: Q01DX009 (sc), vehicle: olive oil, sesame oil, peanut oil 105 % of control | dose: 400.0 mg/kg/injection, schedule: Q01DX009 (sc), vehicle: olive oil, sesame oil, peanut oil 100 % of control
